Measurements reported in patent US8734869B2, “Synergistic pest-control compositions” (TyraTech, Inc., priority 2007, dated 2014).

Columns and labels:
[1] = test system: olfactory receptor activation in Drosophila S2 cells; test: Ca2+ release triggered by olfactory receptor activation in Drosophila S2 cells; assay type: cell-based
From the text: In embodiments of the present invention, a Drosophila Schneider 2 (S2) cell line is stably transfected with a G protein-coupled receptor that is amplified from Drosophila melanogaster head cDNA phage library. The cell line can be used to screen potential active ingredients, as described below.
The potential for insect control activity can be identified by measuring the affinity of the test compositions for the receptor in the cell lines expressing a TyrR, Or83b, and/or Or43a. The potential for insect control activity can also be identified by measuring the change in intracellular cAMP and/or Ca2+ in the cell lines expressing TyrR, Or83b, and/or Or43a following treatment with the test compositions. The gene sequences of the TyrR, the Or 83b receptor and the Or 43a receptor have substantial similarity between various insect species. As such, the Drosophila Schneider cell lines expressing these receptors can be used to screen for compositions having insect control activity in various insect species.
A blend can is prepared and combined with a synthetic pyrethroid such as delatmetrhin. For example, Blend 41 was combined with deltamethrin (DM) and the efficacy of Blend 41 and DM individually were compared to the efficacy of Blend 41 and DM combined. […]

male German Cockroach = test: Time to kill: five microliters applied to the sternum, time to death recorded (stopped at one hour); assay type: in vivo; conditions: five microliters on sternum
Experimental: Five microliters of the oil or oil blend listed in the table below were applied to the sternum of a male German Cockroach, and the time to death was recorded (time keeping was stopped at one hour). Sample size N=60 for Blend 24 and N=40 for each of the oil components. Components were diluted with acetone. Five microliters of the oil or oil blend listed in the table below were applied to the sternum of a male German Cockroach, and the time to death was recorded (time keeping was stopped at one hour). Sample size N=60 for Blend 41 and each of the oil components. Components were diluted with acetone. Five microliters of the oil or oil blend listed in the table below were applied to the sternum of a male German Cockroach, and the time to death was recorded (time keeping was stopped at one hour). Sample size N=40 for Blend 41 and each of the oil components. Components were diluted with acetone.

American cockroaches [2] = test: Residual activity of stabilized compositions, separate jar per time period; assay type: in vivo, American cockroach; conditions: tested about 48 hours after application; separate jar per time point
Experimental: In studies where treatment jars are reused at various time intervals, as described in Example 19, the materials in the jars are lost after each exposure due to contact with and transfer to the insect body, rather than via loss due to volatility of the material. As such, additional studies are conducted wherein a separate jar is prepared for each time period.
A solution of 5% thyme crystal (TC) is prepared in acetone and about 2 ml of the solution is applied to the bottom of five separate glass jars, one for each time point at which mortality is assessed. About 2 ml of six compositions (R1-R6), set forth above in Table 19-A, are each applied to the bottom of five separate jars. Thyme Crystals (5%, by weight) are combined with the six compositions (R1-R6) to produce six formulations. About 2 ml of each formulation is applied to five separate jars.
[…] Mortality is recorded about 24 hours after exposure. […] Mortality is recorded about 24 hours after each exposure.

American cockroaches [3] = test: Residual activity of stabilized compositions, treated jars reused, mortality 24 hours after exposure; assay type: in vivo, American cockroach; conditions: tested about 48 hours after application
Experimental: A solution of 5% thyme crystals (TC) is prepared in acetone and about 2 ml of the solution is applied to the bottom of a glass jar. About 2 ml of six compositions (R1-R6), set forth in Table 19-A, are each applied to the bottom of a separate jar. Thyme Crystals (5%, by weight) are combined with the six compositions (R1-R6) to produce six formulations. About 2 ml of each formulation is applied to a separate jar.
[…] Mortality is recorded about 24 hours after exposure. All jars are kept under room temperature and reused at subsequent time points to evaluate residual activity. […] Mortality is recorded about 24 hours after each exposure.

German Cockroach = test: Bioactivity of Blend 13, deltamethrin and combination; assay type: in vivo
American cockroaches [4] = test: Treated jar test, knockdown and mortality time: Blend 41, deltamethrin, combination; assay type: in vivo, American cockroach; conditions: average of 3 replicates, 5 roaches each
Experimental: To test efficacy of the composition, a small amount of each test chemical is introduced to a separate jar. About 3 to 5 American cockroaches are introduced to each jar at different time intervals. Mortality and/or immobilization (knockdown, KD) data is recorded and compared. Such data is recorded as seconds (s) following introduction of the insect to the treated jar. The resulting data is contained in the following table.
The data is the average of 3 replicates, 5 roaches in each replicate.

Drosophila S2 cells = test: cAMP response in cells treated with Blend 41, imidacloprid and combinations; assay type: cell-based
From the text: FIG. 23 is a bar graph showing percent knockdown in response to treatment of Aedes aegypti with various compositions of including Blend 41 alone, Imidacloprid alone, and combinations of Blend 41 and Imidacloprid. FIG. 24 is a bar graph showing percent knockdown in response to treatment of Aedes aegypti with various compositions of including Blend 41 alone, Imidacloprid alone, and combinations of Blend 41 and Imidacloprid. FIG. 25 is a bar graph showing cAMP signal produced in response to treatment of Drosophila S2 cells treated with various compositions of including Blend 41 alone, Imidacloprid alone, and combinations of Blend 41 and Imidacloprid.

CN/C(=N\[N+](=O)[O-])NCc1cnc(Cl)s1 [clothianidin]
Ca2+ release, single agent alone [1]: increase in Ca^2+ release

C=C(C)[C@H]1CC=C(C)CC1 [D-Limonene]
Percent of Tested Insects > 1 hr Time to Death (male German Cockroach; component at 83%, diluted with acetone): 25% | Percent of Tested Insects > 1 hr Time to Death (male German Cockroach; component of Blend 31 diluted with acetone, concentration not given): 22.5%

Cc1ccc(C(C)C)c(O)c1 [thyme crystal]
residual activity (American cockroaches [2]): does not have residual activity | residual activity (American cockroaches [3]): does not have residual activity

CC1(C)[C@H](C(=O)O[C@H](C#N)c2cccc(Oc3ccccc3)c2)[C@@H]1C=C(Br)Br [deltamethrin]
Bioactivity 100% Kill (German Cockroach): 15 min | Bioactivity KD (German Cockroach): 120 s | 100% Kill (American cockroaches [4]; time to 100% kill in treated jar): 12 min | KD (American cockroaches [4]; time to knockdown in treated jar): 140 s

CCCCCCCCCCCCCC(=O)OC(C)C [Isopropyl myristate, propan-2-yl tetradecanoate]
Percent of Tested Insects > 1 hr Time to Death (male German Cockroach; component at 40%, diluted with acetone): 100%

O=[N+]([O-])NC1=NCCN1Cc1ccc(Cl)nc1 [imidacloprid]
cAMP (Drosophila S2 cells; 100 PPM): 9.1 nM | cAMP (Drosophila S2 cells; 333 PPM): 9.4 nM | cAMP (Drosophila S2 cells; 500 PPM): 8.8 nM
